Consider 13 molecules from patent publication US7192581B2, “Lactobacillus reuteri useful as probiotics” (Probionic Corp., priority 2001, dated 2007).

The test system of this experiment is #Probio-16. The experiment in a line: Antibiotic susceptibility of #Probio-16 (paper disc). Type of experiment: cell-based, Lactobacillus reuteri. How it is done:
Antibiotic susceptibility of #Probio-16 was assayed according to Microbiology procedures handbook vol. 1 (Henry D. Isenberg, ASM) and Korean Pat. Publication No. 91-4366. In this regard, 13 antibiotics, that is, cephalexcin, erythromycin, flumequinine, furazolidine, gentamycin, procaine, penicillin G, norflaxacine, spectinomycin, tetracycline, tiamuline, neomycin, chloramphenicol, and kanamycin, were dissolved in appropriate solvents. By concentrations, the prepared antibiotic solutions were inoculated in an amount of 30 μl onto a paper disc which was then allowed to stand for 1 hour at 4° C. Inhibitory circles emerging after 24 hours of anaerobic incubation were measured.
Assay of #Probio-16 for antibiotic susceptibility was conduced according to Microbiology Procedures Handbook vol. 1 (Henry D. Isenberg, ASM) and Korean Pat. Publication No. 91-4366, with regard to 13 antibiotics, including cephalexcin, erythromycin, flumequinine, furazolidine, gentamycin, procaine, penicillin G, norflaxacine, spectinomycin, tetracycline, tiamuline, neomycin, chloramphenicol, and kanamycin. By concentrations, antibiotic solutions were inoculated in an amount of 30 μl onto a paper disc which was then allowed to stand for 1 hour at 4° C. Inhibitory circles emerging after 24 hours of anaerobic incubation were measured.

Where [1] appears, read: Limosilactobacillus reuteri, against #Probio-16, 24 hours anaerobic incubation (Table 3), read-out: MIC.
The mark [2] stands for this setting: Limosilactobacillus reuteri, against Lactobacillus reuteri Probio-16, read-out: minimal inhibitory concentration (MIC).
Setting [3] is: against #Probio-16, 24 hours anaerobic incubation (Table 3).
Setting [4] is: against Lactobacillus reuteri Probio-16.
The mark [5] stands for this setting: against Lactobacillus reuteri Probio-16 (unit not given).

≈ marks a conversion by molar mass, not a printed value. Read-outs that look alike come from different tables or passages of the source.

Consider `O=C(N[C@H](CO)[C@H](O)c1ccc([N+](=O)[O-])cc1)C(Cl)Cl` [Chloramphenicol], for which the MIC came out at 200 µg/mL (≈ 619 µM) under setting [1] and 200 µg/mL (≈ 619 µM) under setting [2].

Gentamycine: the “MIC” value under setting [3] is 100 µg/mL. Further, the “minimal inhibitory concentration (MIC)” value under setting [4] was 100 µg/mL.

Regarding `NC[C@@H]1O[C@H](O[C@H]2[C@@H](O)[C@H](O[C@@H]3[C@@H](O)[C@H](N)C[C@H](N)[C@H]3O[C@H]3O[C@H](CN)[C@@H](O)[C@H](O)[C@H]3N)O[C@@H]2CO)[C@H](N)[C@@H](O)[C@@H]1O` [Neomycine], the “MIC” value under setting [3] worked out at 100 µg/mL (≈ 163 µM). In addition, the “minimal inhibitory concentration (MIC)” value under setting [4] was determined as 100 µg/mL (≈ 163 µM).

As to `CC1(C)S[C@@H]2[C@H](NC(=O)Cc3ccccc3)C(=O)N2[C@H]1C(=O)O.CCN(CC)CCOC(=O)c1ccc(N)cc1` [procaine Penicilline G], under setting [3], the “MIC” value was 4 µg/mL. Besides, under setting [5], the “minimal inhibitory concentration (MIC)” value is on record as 4.

Turning to `CC1CCc2cc(F)cc3c(=O)c(C(=O)O)cn1c23` (centres unmarked) [Flumequinine], under setting [3], the “MIC” value amounted to 4000 µg/mL (≈ 15300 µM). The “minimal inhibitory concentration (MIC)” value under setting [4] is 4,000 μg/ml.

`O=C1OCCN1/N=C/c1ccc([N+](=O)[O-])o1` [Furazolidine]: the “MIC” value under setting [3] is 90 µg/mL (≈ 400 µM). The “minimal inhibitory concentration (MIC)” value under setting [4] stood at 90 µg/mL (≈ 400 µM).

Regarding `CN(C)[C@@H]1C(O)=C(C(N)=O)C(=O)[C@@]2(O)C(O)=C3C(=O)c4c(O)cccc4[C@@](C)(O)[C@H]3C[C@@H]12` [Tetracycline], the MIC under setting [1] is 1500 µg/mL (≈ 3380 µM) and the MIC under setting [2] came out at 1500 µg/mL (≈ 3380 µM).

Regarding `C=C[C@]1(C)C[C@@H](OC(=O)CSCCN(CC)CC)[C@]2(C)[C@H](C)CC[C@]3(CCC(=O)[C@H]32)[C@@H](C)[C@@H]1O` [Tiamuline], the MIC was determined as 300 µg/mL (≈ 608 µM) under setting [1] and 300 µg/mL (≈ 608 µM) under setting [2].

As to `CN[C@@H]1[C@H](O)[C@H](NC)[C@H]2O[C@@]3(O)C(=O)C[C@@H](C)O[C@H]3O[C@@H]2[C@H]1O` [Spectinomycine], the MIC is, setting by setting: under setting [1], 2500 µg/mL (≈ 7520 µM); under setting [2], 2500 µg/mL (≈ 7520 µM).

In the case of `CCn1cc(C(=O)O)c(=O)c2cc(F)c(N3CCNCC3)cc21` [Norflaxacine], under setting [3], the “MIC” value was 1000 µg/mL (≈ 3130 µM). Further, the “minimal inhibitory concentration (MIC)” value under setting [5] is 100.

Turning to `CC[C@H]1OC(=O)[C@H](C)[C@@H](O[C@H]2C[C@@](C)(OC)[C@@H](O)[C@H](C)O2)[C@H](C)[C@@H](O[C@@H]2O[C@H](C)C[C@H](N(C)C)[C@H]2O)[C@](C)(O)C[C@@H](C)C(=O)[C@H](C)[C@@H](O)[C@]1(C)O` [Erythromycin], the MIC worked out at 4 µg/mL (≈ 5.45 µM) under setting [1] and 4 µg/mL (≈ 5.45 µM) under setting [2].

For `CC1=C(C(=O)O)N2C(=O)[C@@H](NC(=O)[C@H](N)c3ccccc3)[C@H]2SC1` [Cephalexcin], the “MIC” value under setting [3] turned out to be 90 µg/mL (≈ 259 µM). Besides, under setting [4], the “minimal inhibitory concentration (MIC)” value amounted to 90 µg/mL (≈ 259 µM).

As to `NC[C@H]1O[C@H](O[C@H]2[C@H](O)[C@@H](O[C@H]3O[C@H](CO)[C@@H](O)[C@H](N)[C@H]3O)[C@H](N)C[C@@H]2N)[C@H](O)[C@@H](O)[C@@H]1O` [Kanamycine], the MIC amounted to 4000 µg/mL (≈ 8260 µM) under setting [1] and 4000 µg/mL (≈ 8260 µM) under setting [2].
